Series [1] is described as follows: Hepatic microsome stability, human. The following applies: percent remaining at 1 hour. Format: in vitro ADME. On the procedure:
Metabolic stability was assessed in the presence of human liver microsomes (XenoTech) and mouse liver mirosomes (XenoTech). All liquid was dispensed and transfer steps were performed with the FREEDOM EVO automated liquid handler (Tecan US). NADPH, a required cofactor for CYP450 metabolism, was provided by the NADPH Regenerating System, Solutions A (BD Biosciences) and B (BD Biosciences). Compound stock solutions were initially prepared in 100% DMSO and subsequently diluted in acetonitrile for the assay. The pH of the reactions was kept at ˜7.4 with potassium phosphate buffer (BD Biosciences). The reactions were started after adding NADPH to the reaction plate containing microsomes and compounds and time 0 minutes aliquots were promptly collected and mixed with ice cold acetonitrile (spiked with internal standards) to quench the reactions. The remainder of the reaction volume was incubated at 37° C. with shaking. […] The amount of compound in the supernatant was determined by LC/MS/MS (Applied Biosystems, Sciex API4000 Q-TRAP) and the percent of parent compound remaining after 60 minutes was calculated by the following formula: % parent compound remaining=[(concentration at 60 minutes/concentration at 0 minutes)×100]. […] Results reported are the mean of each reaction triplicate, normalized to the internal standard, and expressed as a percent compound remaining after the incubation time. […]

Series [2] is described as follows: in vitro. Format: cell-based. The note with it: human. On the procedure: Immortalized human hepatocytes, Fa2N-4 cells (XenoTech) were seeded at ˜50,000 cells/well, and incubated with a range of concentrations (0.01-50 μM) of compound 17, in duplicate, for 24 hours at 37° C., 5% CO2. Cell viability was determined by cellular ATP levels using the Luminescence ATP Detection Assay System (ATPLITE 1 step, Perkin Elmer) and the Infinite M200 plate reader (Tecan). Camptothecin (highly toxic) and Terfenadine (highly non-toxic) were used as standards. Final DMSO concentration was 0.5%.

The nature of series [3]: Plasma protein binding (RED), mouse. The format is in vitro ADME. On the procedure:
TEFLON Base Plate wells were rinsed with 20% ethanol for 10 minutes. Ethanol was then removed and wells were rinsed with ultrapure water and allowed to dry. RED (rapid equilibrium dialysis) inserts from Thermo Scientific (Pierce) were placed (open end up) into the wells of the base plate. All liquid was dispensed and transfer steps were performed with the FREEDOM EVO automated liquid handler (Tecan US). The sample chambers (red ring) contained 300 μl of a mixture of plasma and compound, and the buffer chambers received 500 μl of dialysis buffer (1×PBS, pH7.4). Duplicate inserts were made for each concentration tested. The base plate was covered with sealing tape and incubated at 37° C. on an orbital shaker at 350 rpm for 4 hours. After the incubation time, equal volumes from both chambers were removed and transferred to a 96 well plate containing either plasma or buffer. […] The amount of compound in the supernatant was determined by LC/MS/MS (Applied Biosystems, Sciex API4000 Q-Trap). The percent of free and bound compounds were calculated with the following formula: % of bound parent compound=[(amount of compound in donor-receiver/amount of compound in donor)×100]. Results reported are the mean of each reaction duplicate, normalized to the internal standard, and expressed as a percent compound bound after the incubation time. […]

Series [4] can be described thus: Plasma stability, human. The format is in vitro ADME. The note with it: percent remaining at 3 hours. On the procedure: (§1) Stability of compounds in human plasma (BioChemed Services) and mouse plasma (BioChemed Services) were determined. All liquid was dispensed and transfer steps were performed with the FREEDOM EVO automated liquid handler (Tecan US). Plasma was allowed to thaw at room temperature prior to preparing the assay solution of plasma:1×PBS (1:1). The assay solution was warmed up at 37° C. prior of adding the compound. Immediately after compounds were added, time 0 minute aliquots were promptly collected and mixed with cold acetonitrile (spiked with an internal standard). The remainder of the reaction volume was incubated at 37° C. with shaking. Additional aliquots were collected 180 minutes after the start of the reaction and promptly quenched with cold acetonitrile (spiked with an internal standard). Samples were centrifuged at 3000 rpm for 10 minutes. The amount of compound in the supernatant was determined by LC/MS/MS (Applied Biosystems, Sciex API4000 Q-TRAP) and the percent of parent compound remaining after 180 minutes was calculated by the following formula: % parent compound remaining=[(concentration at 180 minutes/concentration at 0 minutes)×100]. Results reported are the mean of each reaction duplicate, normalized to the internal standard, and expressed as a percent of compound remaining after the incubation time. […]

Series [5] is described as follows: Plasma stability, mouse. The format is in vitro ADME. The note with it: percent remaining at 3 hours. On the procedure:
as §1

The term CC50 denotes the concentration at which the toxic effect on the cells reaches its halfway point. Low readings indicate harm at low concentration, high ones better tolerance by the cells.

In the case of `Cc1ccc2nc(-c3ccc4nc(-c5ccc(NC(=O)c6cccc(Cl)c6)cc5)sc4c3)sc2c1S(=O)(=O)O` [Compound 17, 2′-(4-(3-chlorobenzamido)phenyl)-6-methyl-[2,6′-bibenzo[d]thiazole]-7-sulfonic acid], the “Hepatic Microsome Stability Human” value in series [1] was found to be 83.57%. The molecule further displayed a CC50 at 24 h in series [2] above 50 µM. For the same molecule, the fraction unbound at 4 h, 1 μM in series [3] (pH 7.4, 1 μM, read-out: Plasma Protein Binding (% Bound) Mouse (converted)) is 0.02. In addition, the fraction unbound at 4 h, 10 μM in series [3] (pH 7.4, 10 μM, read-out: Plasma Protein Binding (% Bound) Mouse) is 0.01. Also, the “Plasma Stability Human” value in series [4] stood at 96.6%. Besides, the “Plasma Stability Mouse” value in series [5] is 95.0%.

The values above are taken from patent US9464064B2, “HCV helicase inhibitors and methods of use thereof” (University of Kansas, priority 2011, dated 2016).
